Data set [1] in a line: Particle size and polydispersity index of nanoparticle compositions (Zetasizer Nano ZS). It counts as physicochemical. The method in brief: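 In 1×PBS, the compositions were sized on a Zetasizer Nano ZS, which also reported their polydispersity index.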
Data set [2] in a line: Encapsulation efficiency of RNA (QUANT-IT RIBOGREEN RNA assay). It counts as physicochemical. The method in brief: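 Nanoparticle samples diluted to ~5 μg/mL RNA in TE buffer (pH 7.5), incubated with or without 2% Triton X-100 solution at 37 °C for 15 min, then RiboGreen added. Fluorescence read at ~480/520 nm, blank-subtracted; free RNA % = intact over Triton-disrupted signal.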

Data set [3] is described as follows: pKa of nanoparticle compositions. It counts as physicochemical.
Data set [4] concerns luciferase (Luc) mRNA expression. Description: Expression of Luc induced by sample formulations, whole-body bioluminescence after intravenous administration. Type of data set: in vivo. Particulars: mice, i.v., 0.5 mg/kg. The method in brief:
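Mice (n=6) dosed intravenously with Luc mRNA nanoparticle formulations at 0.5 mg/kg. Whole-body bioluminescence measured at 3, 6 and 24 h. Standard MC3 formulation and PBS control run alongside.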

The subject of data set [5] is modified luciferase expression. Description: Expression of Luc in different organs (liver, lung, spleen, femur) 6 hours after intravenous administration. It counts as in vivo. The conditions noted are these: i.v., 0.5 mpk. As for the experimental part:
The efficacy of the nanoparticle compositions presented in Tables 1, 1a, 17-1, 19-1, 20-1 and 21-1 was further evaluated by measuring the expression of modified luciferase in the liver, lung, spleen, and femur upon administration of a given composition. Formulations were administered intravenously to mice (n=3) at a dosage of 0.5 mpk and bioluminescence measured after 6 hours. The standard MC3 formulation and a PBS control were also tested.

For data set [6], the system named is IL-6. Kind of data set: Cytokine production induced by sample formulations: IL-6. It counts as in vivo. The conditions noted are these: mice, i.v., 0.5 mpk, 6 hours; for IL-6: in pg/mL (unit assumed). The method in brief:
(§1)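 Mice received nanoparticle formulations intravenously at 0.5 mpk, with standard MC3 formulation and PBS as controls. Cytokine concentrations were measured 6 hours after dosing.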

For data set [7], the system named is IP-10. Kind of data set: Cytokine production induced by sample formulations: IP-10. It counts as in vivo. The conditions noted are these: mice, i.v., 0.5 mpk, 6 hours; for IP-10: in pg/mL (unit assumed). The gist of the method: as §1
Setting [8] is: Table 20-1, rows without footnote mark.

The values below come from patent publication US10195156B2, “Compounds and compositions for intracellular delivery of agents” (ModernaTX, Inc., priority 2015, dated 2019).

A word on the pKa: it is the pH at which an ionisable group is half protonated.

Consider `CCCCCCCCCCCCN(CCCCCCCCCCCC)CCN(CCO)CCCCCCCCC` [Compound 20-17, 2-((2-(didodecylamino)ethyl)(nonyl)amino)ethan-1-ol], for which, in data set [1] (setting [8]), the PDI is 0.092 and the “Size (nm)” value came to 71.2 nm. In data set [2] (setting [8]), the “EE (%)” value is reported as 98.2%. The pKa in data set [3] (setting [8]) is 6.25. In addition, in data set [4] (Table 20-2), the “Total Flux 3 hours” value is reported as 1.97E+07, the “Total Flux 6 hours” value was 1.44E+07 and the “Total Flux 24 hours” value is recorded as 1.54E+06. Further, in data set [5] (Table 20-3, mice, liver), the “Total Flux Liver” value was 2.99E+06. For the same molecule, in data set [5] (Table 20-3, mice), the “Total Flux Lung” value came to 2.79E+04 and the “Total Flux Spleen” value was determined as 9.56E+04. The same molecule registered an IL-6 in data set [6] (Table 20-4, formula (20-I)) of 6.3. The molecule further had an IP-10 in data set [7] (Table 20-4, formula (20-I)) of 1207.0.
With `CCCCC/C=C\C/C=C\CCCCCCCCN(CCO)CCCCCCCCCCCC` [Compound 17-4, 2-(Dodecyl((9Z,12Z)-octadeca-9,12-dien-1-yl)amino)ethan-1-ol], in data set [1] (Table 17-1), the PDI is reported as 0.154 and the “Size (nm)” value is 95.6 nm. In addition, the “EE (%)” value in data set [2] (Table 17-1) stood at 94.5%. Moreover, the pKa in data set [3] (Table 17-1) amounted to 6.34. Further, in data set [4] (Table 17-2), the “Total Flux 3 hours” value stood at 1.22E+09, the “Total Flux 6 hours” value is on record as 3.60E+08 and the “Total Flux 24 hours” value is listed as 6.05E+07. Moreover, the “total flux / Luc expression, rank within the named table (in words)” value in data set [4] (each time point) was “substantially higher flux than compositions including Compounds 17-2, 17-3, and 17-7”. Further, the “Total Flux Liver” value in data set [5] (Table 17-3, mice, liver) was 8.00E+07. Further, in data set [5] (Table 17-3, mice), the “Total Flux Lung” value is listed as 1.95E+05 and the “Total Flux Spleen” value was determined as 2.30E+06. The “total flux in the spleen, rank within the named table (in words)” value in data set [5] (mice) was “highest”. In data set [6] (Table 17-4), this molecule yielded an IL-6 of 80.7. Also, the “IL-6 induction, rank within the named table (in words)” value in data set [6] was “highest IL-6 and IP-10 levels”. In data set [7] (Table 17-4), the IP-10 came out at 560. The “IP-10 induction, rank or comparison with IL-6 (in words)” value in data set [7] is “highest IL-6 and IP-10 levels”.
`CCCCC/C=C\C/C=C\CCCCCCCCN(CCO)CCCCCCCCCCCCCC` [Compound 17-5, 2-(((9Z,12Z)—Octadeca-9,12-dien-1-yl)(tetradecyl)amino)ethan-1-ol]: in data set [1] (Table 17-1), the PDI amounted to 0.137 and the “Size (nm)” value came to 88.4 nm. Besides, the “EE (%)” value in data set [2] (Table 17-1) is 94.2%. The pKa in data set [3] (Table 17-1) was found to be 6.92. Besides, in data set [4] (Table 17-2), the “Total Flux 3 hours” value is listed as 6.64E+08, the “Total Flux 6 hours” value was found to be 8.54E+08 and the “Total Flux 24 hours” value worked out at 5.97E+07. For the same molecule, the “Total Flux Liver” value in data set [5] (Table 17-3, mice, liver) is 1.17E+08. In addition, in data set [5] (Table 17-3, mice), the “Total Flux Lung” value was found to be 8.13E+05 and the “Total Flux Spleen” value was found to be 2.13E+06. Further, the “total flux in the liver, rank within the named table (in words)” value in data set [5] (mice, liver) is “somewhat comparable to those including MC3”. The “total flux in the spleen, rank within the named table (in words)” value in data set [5] (mice) is given as “highest”. The molecule further displayed an IL-6 in data set [6] (Table 17-4) of 49.2. Further, in data set [7] (Table 17-4), the IP-10 worked out at 300.
With `CCCCCCCCCCCCCCN(CCO)CCCCCCCCCCCCCC` [Compound 17-7, 2-(Ditetradecylamino)ethan-1-ol], in data set [1] (Table 17-1), the PDI turned out to be 0.110 and the “Size (nm)” value came to 68.5 nm. The “particle size, rank within the named table (in words)” value in data set [1] (comparison amongst compositions) is “smallest particles”. In addition, the “EE (%)” value in data set [2] (Table 17-1) is recorded as 95.6%. For the same molecule, the pKa in data set [3] (Table 17-1) is 5.68. Besides, in data set [4] (Table 17-2), the “Total Flux 3 hours” value was 4.68E+05, the “Total Flux 6 hours” value was found to be 6.82E+05 and the “Total Flux 24 hours” value was found to be 5.46E+05. Also, the “Total Flux Liver” value in data set [5] (Table 17-3, mice, liver) turned out to be 7.44E+04. Also, in data set [5] (Table 17-3, mice), the “Total Flux Lung” value was determined as 1.35E+04 and the “Total Flux Spleen” value worked out at 3.46E+04. In addition, in data set [6] (Table 17-4), the IL-6 was 49.9. Further, in data set [7] (Table 17-4), the IP-10 was found to be 100.
